The source of these data is ChEMBL document CHEMBL1201862, “PubChem BioAssay data set” (2004).

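Compound exposure: 48 hours, 5 concentrations, 96-well plates. GI50 = concentration required for 50% inhibition of growth.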 Calls of active or inactive are those of the source. No stated cut-off is given here; in the data, active = GI50 up to about 1.1 µM and inactive = higher.

Among the test systems are DLD-1; DMS-114; DMS-273; HOP-18; KM-20L2; LXFL 529; M19-MEL; XF498; RXF 631.
Holding throughout (assay): growth of human tumour cells (NCI), 48 h

For `O=C1c2ccccc2C(=O)c2c(NCCNCCO)ccc(O)c21`, the GI50 in the test on DLD-1 is 3.33 µM (inactive); in the test on DMS-114, 4.59 µM (inactive); in the test with DMS-273, 2.22 µM (inactive); with HOP-18, 9.27 µM (inactive); in the test on KM-20L2, 2.94 µM (inactive); in the test on LXFL 529 it was 3.69 µM (inactive). Besides, the GI50 is 2.82 µM (inactive) in the test on M19-MEL and 4.89 µM (inactive) in the test on XF498.

Take `CN(N=O)C(=O)N[C@H]1C(O)O[C@H](CO)[C@@H](O)[C@@H]1O` (stereo partly specified): the GI50 with DLD-1 was 632 µM (inactive); with DMS-114 it was 504 µM (inactive); in the test with DMS-273, 528 µM (inactive); with HOP-18, 222 µM (inactive); in the test with KM-20L2, > 750 µM (inactive); in the test with LXFL 529 it was > 750 µM (inactive). Also, the GI50 is 475 µM (inactive) in the test with M19-MEL and 557 µM (inactive) with XF498.

For the compound `C=CCC(OCCOCC)c1cc(OCCOCC)ccc1OC` (stereo unspecified), the GI50 with DMS-273, in the test on LXFL 529, in the test with M19-MEL and in the test with XF498 was > 100 µM (inactive) throughout.

For the compound `NCCOCn1cc(Cc2cccc(OCc3ccccc3)c2)c(=O)[nH]c1=O`, the GI50 in the test on DLD-1 was > 100 µM (inactive); with DMS-114, 77.1 µM (inactive); in the test with DMS-273, 70 µM (inactive); in the test with HOP-18, > 100 µM (inactive); in the test on KM-20L2, > 100 µM (inactive); with LXFL 529, > 100 µM (inactive).

For `O=C(/C=C/c1ccccc1)c1ccc(NCc2nc3ccccc3[nH]2)cc1`, the GI50 with DLD-1 was 4.27 µM (inactive); in the test with DMS-114 it was 2.56 µM (inactive); in the test with DMS-273, 4.5 µM (inactive); in the test with HOP-18 it was 2.34 µM (inactive); in the test with KM-20L2, 2.9 µM (inactive); with LXFL 529 it was 2.83 µM (inactive). Further, the GI50 in the test on M19-MEL is 4.41 µM (inactive); with XF498, 7.6 µM (inactive).

Consider `COC(=O)/C(=N\Nc1nc(S)nn1N)C(C#N)c1ccccc1` (stereo unspecified), for which the GI50 with DLD-1, with HOP-18, in the test on KM-20L2, with LXFL 529 and with M19-MEL was > 100 µM (inactive) each time.

On to `O=C1[C@H]2ON(c3ccccc3)C(c3ccc(Cl)cc3)[C@H]2C(=O)N1c1ccc(Cc2ccc(N3C(=O)[C@@H]4ON(c5ccccc5)C(c5ccc(Cl)cc5)[C@@H]4C3=O)cc2)cc1` (stereo partly specified), for which the GI50 was > 100 µM (inactive) in the test on DLD-1; > 100 µM (inactive) with DMS-114; > 100 µM (inactive) in the test with DMS-273; > 100 µM (inactive) with HOP-18; > 100 µM (inactive) in the test with KM-20L2; 94.8 µM (inactive) in the test with LXFL 529. For the same compound, the GI50 in the test on M19-MEL and with RXF 631 was > 100 µM (inactive) throughout.

As for `O=C(OCc1nc2ccc(Br)cc2c(=O)n1-c1ccccc1)c1ccccc1O`, the GI50 with DLD-1 was 67.1 µM (inactive); in the test with KM-20L2, > 100 µM (inactive); with LXFL 529, 35.4 µM (inactive); in the test with M19-MEL, > 100 µM (inactive); in the test on XF498, 51.4 µM (inactive).

Turning to `N#Cc1c(-c2ccco2)cc(-c2ccc(NCc3nc4ccccc4[nH]3)cc2)nc1N`, the GI50 in the test on DLD-1 is 28.8 µM (inactive); with DMS-273 it was 18 µM (inactive); in the test on HOP-18, 24.4 µM (inactive); in the test on LXFL 529, 17.9 µM (inactive); in the test on M19-MEL it was 25.1 µM (inactive).

Turning to `COc1cc(/C=C(\NC(=O)c2ccccc2)c2nc3c(O)nc(S)nc3[nH]2)cc(OC)c1OC`, the GI50 in the test on DLD-1, with DMS-114, in the test with KM-20L2, in the test on LXFL 529, in the test on M19-MEL and with RXF 631 was > 100 µM (inactive) throughout. Also, the GI50 in the test on XF498 was > 100 µM (inactive).

With `CCCC(Sc1ccccc1)P(=O)(c1ccccc1)c1ccccc1` (stereo unspecified), the GI50 was 19.6 µM (inactive) in the test with DLD-1; 34.8 µM (inactive) in the test with DMS-114; 36.6 µM (inactive) with DMS-273; > 100 µM (inactive) in the test with KM-20L2; 34.6 µM (inactive) in the test with M19-MEL; 30.1 µM (inactive) with RXF 631.

For `CC(=O)OCCOCNC(=S)N/N=C(\C)c1ccco1`, the GI50 with DLD-1, in the test with DMS-114, in the test on DMS-273, in the test on HOP-18, with KM-20L2 and in the test on LXFL 529 was > 100 µM (inactive) throughout. The GI50 with M19-MEL and in the test on RXF 631 was > 100 µM (inactive) each time.

On to `Brc1ccc(C2SCc3nc4ccccc4n32)cc1` (stereo unspecified), for which the GI50 is 10.5 µM (inactive) in the test with DLD-1; 45.5 µM (inactive) in the test with HOP-18; 7.36 µM (inactive) in the test with LXFL 529; 12.4 µM (inactive) in the test on M19-MEL; 11.8 µM (inactive) in the test with XF498.

Turning to `COC(=O)c1nc(C(=O)OC)c2c([nH]c3ccccc32)c1C(=O)OC`, the GI50 was 65.6 µM (inactive) in the test with DLD-1; 49.3 µM (inactive) with DMS-114; 60 µM (inactive) in the test on DMS-273; < 0.01 µM (active) with HOP-18; 74.5 µM (inactive) with LXFL 529; 35.2 µM (inactive) with XF498.

Take `Cn1c2cc(O)cc(O)c2c(=O)c2c([N+](=O)[O-])cccc21`: the GI50 with DLD-1, in the test with DMS-114, in the test on DMS-273, in the test on HOP-18, in the test with KM-20L2 and in the test with LXFL 529 was > 100 µM (inactive) in each case. In addition, the GI50 in the test on RXF 631 is > 100 µM (inactive).

Take `COC(=O)[C@@]1(C)C(=O)CC[C@@H]1C=O`: the GI50 in the test on DLD-1, in the test on DMS-114, with KM-20L2, with LXFL 529, in the test on M19-MEL and in the test on XF498 was > 100 µM (inactive) in each case.

Take `[O-][S+]1Cc2ccccc2CS1` (stereo unspecified): the GI50 is 16.7 µM (inactive) in the test on DLD-1; 14.2 µM (inactive) in the test with DMS-273; 33 µM (inactive) in the test with HOP-18; 25.3 µM (inactive) in the test on KM-20L2; 15.1 µM (inactive) with LXFL 529; 17 µM (inactive) with M19-MEL. For the same compound, the GI50 with RXF 631 was 48.9 µM (inactive); with XF498, 17.9 µM (inactive).

For `CC(C)CS(=O)(=O)/C(=C(\c1ccc(Br)cc1)S(=O)(=O)CC(C)C)c1ccc(Br)cc1`, the GI50 in the test with DLD-1, with DMS-273, in the test on HOP-18, in the test on KM-20L2, in the test with LXFL 529 and in the test on M19-MEL was > 100 µM (inactive) in each case. Also, the GI50 with RXF 631 and with XF498 was > 100 µM (inactive) each time.

As for `CCOC(=O)NC(=O)c1cn(CCCOC(=O)CCCCCCCCCCC(=O)OCCCn2cc(C(=O)NC(=O)OCC)c(=O)n(C)c2=O)c(=O)n(C)c1=O`, the GI50 in the test with DLD-1, in the test with DMS-114, in the test on DMS-273, in the test with HOP-18, with LXFL 529 and in the test with M19-MEL was > 100 µM (inactive) each time. Moreover, the GI50 in the test with XF498 was > 100 µM (inactive).

`Cc1ccc(C)c(NC(=O)CC/C(=N\NC(=O)C(=O)NN)C(C)C(=O)c2ccc(O)cc2)c1` (stereo unspecified): the GI50 with DLD-1, in the test on DMS-273, with HOP-18, with KM-20L2, in the test with LXFL 529 and in the test on M19-MEL was > 100 µM (inactive) in each case.
